According to patent US11234982B2, “Methods for treating ocular surface pain” (NOVARTIS AG, priority 2019, dated 2022):

Test system: cornea
Test: Esthesiometry assessment (Part 3): corneal sensitivity, anesthetic effect
Type: in vivo, human
Details: for Anesthetic effect on the cornea (esthesiometry): single eye drop: tetracaine 0.5%, diclofenac 0.1%, compound I 2.5%
Source text: Part 3 was an esthesiometry assessment to evaluate the anesthetic properties of compound I. Part 3 of the study had four arms, with compound I, vehicle, tetracaine (0.5% ophthalmic solution, used as a positive control) and diclofenac sodium (0.1% ophthalmic solution, used as the active NSAID comparator). Ocular anesthetic was selected because of its established anesthetic effect; however it is not the standard of care due to its negative effect on wound healing. NSAID is the current standard of care for corneal pain after PRK with minimal anesthetic but significant pain control properties. Vehicle eye drops were used as a negative control to enable better determination of the potential anesthetic effect. Twelve healthy subjects, who met the eligibility criteria, were randomized to receive a single eye drop of 4 study treatments, each during 1 of 4 different study days (Days 1, 4, 7 and 10). Each subject was randomized to receive the study treatment according to one of the following four sequences: • Sequence 1: Anesthetic, NSAID, compound I 2.5%, Vehicle • Sequence 2: NSAID, Vehicle, Anesthetic, compound I 2.5% • Sequence 3: Vehicle, compound I 2.5%, NSAID, Anesthetic • Sequence 4: compound I 2.5%, Anesthetic, Vehicle, NSAID
Inclusion Criteria: • Written informed consent was obtained before any assessment was performed. • Healthy male and female subjects aged 18 to 50 years (inclusive), and in good health as determined by past medical history, physical examination, vital signs, ECG, and laboratory tests at Screening. • At Screening, and Baseline, vital signs (systolic and diastolic blood pressure (BP) and pulse rate) were assessed in the sitting position after the subject had rested for at least 3 minutes and again after 3 minutes in the standing position. […] BMI=Body weight (kg)/[Height (m)]^2 • Subjects who were able to communicate well with the Investigator, to understand and comply with the requirements of the study. • For Part 3, subjects Baseline levels of eye sensitivity were to be in the range of 50 to 60 mm (inclusive) as measured by the Cochet-Bonnet esthesiometer.
The first-in-human study further evaluated potential anesthetic effect of topical ocular 2.5% compound I by esthesiometry testing, i.e. measurement of the filament length (cm) when the threshold of cornea touch is perceived.

O=C(O)Cc1ccccc1Nc1c(Cl)cccc1Cl [diclofenac, diclofenac sodium, reference compound]
Anesthetic effect on the cornea (esthesiometry): no anesthetic effect

CCCCNc1ccc(C(=O)OCCN(C)C)cc1 [tetracaine, reference compound]
Corneal sensitivity, least squares means, Test vs Ref: vs Diclofenac 0.1% (Tetracaine 0.5% (N=12) vs Diclofenac 0.1% (N=12) at 2.5, 10 and 20 minutes post-dose): statistical and clinical significance were observed | Corneal sensitivity, least squares means, Test vs Ref: vs Vehicle (Tetracaine 0.5% (N=12) vs Vehicle (N=12) at 2.5, 10 and 20 minutes post-dose): statistical and clinical significance were observed | Anesthetic effect on the cornea (esthesiometry): had an anesthetic effect
